Experimental data taken from US11535611B2, “Pyrazolo[3,4-B]pyridines and imidazo[1,5-B]pyridazines as PDE1 inhibitors” (H. Lundbeck A/S, priority 2017, dated 2022).
pIC50: −log10 of the molar value.

Experiments:
Format in all cases: biochemical
PDE1A = PDE1A (Homo sapiens (Human), UniProt P54750); assay: PDE1 inhibition assay, PDE1A; settings: for inhibition at 10 µM: @ 10 μM compound; for pIC50: 15 nM tritium labelled cAMP, 1 hr at room temperature, SPA beads; for inhibition at 1 µM: @ 1 μM compound
Description: (§1) PDE1A, PDE1B and PDE1C assays were performed as follows: the assays were performed in 60 μL samples containing a fixed amount of the PDE1 enzyme (sufficient to convert 20-25% of the cyclic nucleotide substrate), a buffer (50 mM HEPES (4-(2-hydroxyethyl)-1-piperazineethanesulfonic acid) pH 7.6; 10 mM MgCl2; 0.02% Tween20), 0.1 mg/ml BSA (bovine serum albumin), 15 nM tritium labelled cAMP and varying amounts of inhibitors. Reactions were initiated by addition of the cyclic nucleotide substrate, and reactions were allowed to proceed for 1 hr at room temperature before being terminated through mixing with 20 μL (0.2 mg) yttrium silicate SPA beads (PerkinElmer). The beads were allowed to settle for 1 hour in the dark before the plates were counted in a Wallac 1450 Microbeta counter. The measured signals were converted to activity relative to an uninhibited control (100%) and IC50 values were calculated using XIFit (model 205, IDBS).

PDE1B = PDE1B (Homo sapiens (Human), UniProt Q01064); assay: PDE1 inhibition assay, PDE1B; settings: for pIC50: 15 nM tritium labelled cAMP, 1 hr at room temperature, SPA beads, read-out: PDE1 B, IC50
Description: as §1

PDE1C = PDE1C (Homo sapiens (Human), UniProt Q14123); assay: PDE1 inhibition assay, PDE1C; settings: for pIC50: 15 nM tritium labelled cAMP, 1 hr at room temperature, SPA beads, read-out: PDE1 C, IC50; for inhibition at 10 µM: @ 10 μM compound, read-out: PDE1 C, % inhibition @ 10 μM; for inhibition at 1 µM: @ 1 μM compound, read-out: PDE1 C, % inhibition @ 1 μM
Description: as §1

Sequence of PDE1C (Q14123 whole entry): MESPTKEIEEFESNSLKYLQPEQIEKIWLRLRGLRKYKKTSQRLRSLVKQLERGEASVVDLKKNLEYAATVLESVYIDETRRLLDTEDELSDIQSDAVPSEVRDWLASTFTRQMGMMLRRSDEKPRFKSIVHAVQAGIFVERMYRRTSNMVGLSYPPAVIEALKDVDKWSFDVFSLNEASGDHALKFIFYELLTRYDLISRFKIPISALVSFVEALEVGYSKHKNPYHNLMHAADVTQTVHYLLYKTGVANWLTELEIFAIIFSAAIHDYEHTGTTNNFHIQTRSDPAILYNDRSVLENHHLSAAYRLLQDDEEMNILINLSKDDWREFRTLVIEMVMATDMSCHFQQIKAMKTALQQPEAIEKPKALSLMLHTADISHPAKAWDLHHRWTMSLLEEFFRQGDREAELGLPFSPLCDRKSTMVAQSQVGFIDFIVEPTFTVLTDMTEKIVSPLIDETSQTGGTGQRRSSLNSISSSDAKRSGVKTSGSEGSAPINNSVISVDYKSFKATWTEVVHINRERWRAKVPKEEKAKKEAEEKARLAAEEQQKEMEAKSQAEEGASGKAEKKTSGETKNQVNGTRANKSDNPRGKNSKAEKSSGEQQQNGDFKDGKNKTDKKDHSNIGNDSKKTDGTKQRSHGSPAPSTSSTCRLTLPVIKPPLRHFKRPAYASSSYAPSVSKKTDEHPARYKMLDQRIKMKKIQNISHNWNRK
Sequence of PDE1B (Q01064 whole entry): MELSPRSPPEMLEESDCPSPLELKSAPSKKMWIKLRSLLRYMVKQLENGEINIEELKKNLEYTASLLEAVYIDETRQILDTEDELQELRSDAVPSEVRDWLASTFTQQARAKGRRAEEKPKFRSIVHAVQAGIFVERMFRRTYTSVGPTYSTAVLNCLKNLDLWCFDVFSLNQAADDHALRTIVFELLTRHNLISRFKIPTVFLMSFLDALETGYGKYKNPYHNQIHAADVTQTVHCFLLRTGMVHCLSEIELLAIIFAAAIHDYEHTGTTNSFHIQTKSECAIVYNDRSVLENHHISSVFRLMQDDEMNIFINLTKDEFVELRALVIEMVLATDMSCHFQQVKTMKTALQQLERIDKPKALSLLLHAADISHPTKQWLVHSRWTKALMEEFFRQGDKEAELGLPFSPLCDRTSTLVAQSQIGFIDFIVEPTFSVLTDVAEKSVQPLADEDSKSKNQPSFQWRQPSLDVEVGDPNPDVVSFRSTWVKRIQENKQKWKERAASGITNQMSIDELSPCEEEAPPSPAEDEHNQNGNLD
Sequence of PDE1A (P54750 whole entry): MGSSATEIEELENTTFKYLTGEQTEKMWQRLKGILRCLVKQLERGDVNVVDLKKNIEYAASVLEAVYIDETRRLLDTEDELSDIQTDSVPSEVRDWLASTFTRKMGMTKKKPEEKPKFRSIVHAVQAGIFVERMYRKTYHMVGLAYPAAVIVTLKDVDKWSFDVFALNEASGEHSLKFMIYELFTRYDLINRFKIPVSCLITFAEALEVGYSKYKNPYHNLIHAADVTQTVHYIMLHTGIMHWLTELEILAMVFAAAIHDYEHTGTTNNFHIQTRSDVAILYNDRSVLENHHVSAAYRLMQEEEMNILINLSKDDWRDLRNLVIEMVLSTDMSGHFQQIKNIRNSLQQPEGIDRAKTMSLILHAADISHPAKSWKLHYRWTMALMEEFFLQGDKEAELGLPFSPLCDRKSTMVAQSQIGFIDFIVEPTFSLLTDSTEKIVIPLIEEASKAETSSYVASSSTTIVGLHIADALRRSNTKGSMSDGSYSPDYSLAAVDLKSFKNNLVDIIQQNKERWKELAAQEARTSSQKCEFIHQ

Row | inhibition at 10 µM (PDE1A) | pIC50 (PDE1B) | pIC50 (PDE1C) | inhibition at 10 µM (PDE1C) | pIC50 (PDE1A) | inhibition at 10 µM (PDE1B; @ 10 μM compound, read-out: PDE1 B, % inhibition @ 10 μM) | inhibition at 1 µM (PDE1A) | inhibition at 1 µM (PDE1C) | SMILES
1 | 59% | 5.82 | 5.62 | – | – | – | – | – | COc1ncc(C#N)cc1-c1cc(N[C@@H]2CCOC2)c2c(cnn2C(C)C)n1 [Example 54, 5-[1-isopropyl-7-[[(3R)-tetrahydrofuran-3-yl]amino]pyrazolo[4,3-b]pyridin-5-yl]-6-methoxy-pyridine-3-carbonitrile]
2 | 69% | 5.86 | 5.60 | – | – | – | – | – | CCOc1ncc(C#N)cc1-c1cc(N[C@@H]2CCOC2)c2c(cnn2C(C)C)n1 [Example 55, 6-ethoxy-5-[1-isopropyl-7-[[(3R)-tetrahydrofuran-3-yl]amino]pyrazolo[4,3-b]pyridin-5-yl]pyridine-3-carbonitrile]
3 | 51% | 5.82 | – | 59% | – | – | – | – | CCc1ncccc1-c1cc(N[C@@H]2CCOC2)c2c(cnn2C(C)C)n1 [Example 56, 5-(2-ethyl-3-pyridyl)-1-isopropyl-N-[(3R)-tetrahydrofuran-3-yl]pyrazolo[4,3-b]pyridin-7-amine]
4 | – | 6.52 | 6.30 | – | 6.06 | – | – | – | COc1ccc(Cc2cc(N[C@@H]3CCOC3)c3c(cnn3C(C)C)n2)cc1 [Example 57, 1-isopropyl-5-[(4-methoxyphenyl)methyl]-N-[(3R)-tetrahydrofuran-3-yl]pyrazolo[4,3-b]pyridin-7-amine]
5 | 52% | 5.66 | – | 31% | – | – | – | – | COCc1ncccc1-c1cc(N[C@@H]2CCOC2)c2c(cnn2C(C)C)n1 [Example 58, 1-isopropyl-5-[2-(methoxymethyl)-3-pyridyl]-N-[(3R)-tetrahydrofuran-3-yl]pyrazolo[4,3-b]pyridin-7-amine]
6 | – | 7.59 | 6.74 | – | 7.28 | – | – | – | CCOc1ncccc1-c1ccc2c(n1)c(C)nn2C(C)C [Example 59, 5-(2-ethoxy-3-pyridyl)-1-isopropyl-3-methyl-pyrazolo[4,3-b]pyridine]
7 | – | 6.91 | 6.70 | – | 6.65 | – | – | – | Cc1cc2c(nc1-c1ccccc1)c(C)nn2C(C)C [Example 60, 1-isopropyl-3,6-dimethyl-5-phenyl-pyrazolo[4,3-b]pyridine]
8 | – | 7.08 | 6.63 | – | 6.54 | – | – | – | COc1ncccc1-c1nc2c(C)nn(C(C)C)c2cc1C [Example 61, 1-isopropyl-5-(2-methoxy-3-pyridyl)-3,6-dimethyl-pyrazolo[4,3-b]pyridine]
9 | – | 6.80 | 6.25 | – | 6.16 | – | – | – | COc1ccccc1-c1nc2c(C)nn(C(C)C)c2cc1C [Example 62, 1-isopropyl-5-(2-methoxyphenyl)-3,6-dimethyl-pyrazolo[4,3-b]pyridine]
10 | – | 7.80 | 6.76 | – | 7.07 | – | – | – | CCOc1ncccc1-c1nc2c(C)nn(C(C)C)c2cc1C [Example 63, 5-(2-ethoxy-3-pyridyl)-1-isopropyl-3,6-dimethyl-pyrazolo[4,3-b]pyridine]
11 | – | 7.60 | 6.66 | – | 6.93 | – | – | – | CCCOc1ncccc1-c1nc2c(C)nn(C(C)C)c2cc1C [Example 64, 1-isopropyl-3,6-dimethyl-5-(2-propoxy-3-pyridyl)pyrazolo[4,3-b]pyridine]
12 | – | 8.15 | 6.95 | – | 7.30 | – | – | – | CCOc1ncccc1-c1cc(NC)c2c(n1)c(C)nn2C(C)C [Example 65, 5-(2-ethoxy-3-pyridyl)-1-isopropyl-N,3-dimethyl-pyrazolo[4,3-b]pyridin-7-amine]
13 | – | 8.30 | 6.79 | – | 7.22 | – | – | – | CCNc1cc(-c2cccnc2OCC)nc2c(C)nn(C(C)C)c12 [Example 66, 5-(2-ethoxy-3-pyridyl)-N-ethyl-1-isopropyl-3-methyl-pyrazolo[4,3-b]pyridin-7-amine]
14 | – | 7.92 | 7.06 | – | 7.28 | – | – | – | CCOc1ncccc1-c1cc(NCC2CC(=O)N(C)C2)c2c(n1)c(C)nn2C(C)C (stereo not drawn) [Example 68, 4-[[[5-(2-ethoxy-3-pyridyl)-1-isopropyl-3-methyl-pyrazolo[4,3-b]pyridin-7-yl]amino]methyl]-1-methyl-pyrrolidin-2-one]
15 | – | 7.89 | 6.89 | – | 7.21 | – | – | – | CCOc1ncccc1-c1cc(N)c2c(n1)c(C)nn2C(C)C [Example 69, 5-(2-ethoxy-3-pyridyl)-1-isopropyl-3-methyl-pyrazolo[4,3-b]pyridin-7-amine]
16 | – | 7.00 | 5.66 | – | 6.08 | – | – | – | CCOc1ncccc1-c1ccc2c(cnn2C(C)C)n1 [Example 70, 5-(2-ethoxy-3-pyridyl)-1-isopropyl-pyrazolo[4,3-b]pyridine]
17 | – | 7.77 | 7.00 | – | 7.13 | – | – | – | CCOc1ncccc1-c1nc2c(C)nc(C(C)C)n2cc1C [Example 71, 2-(2-ethoxy-3-pyridyl)-6-isopropyl-3,8-dimethyl-imidazo[1,5-a]pyrimidine]
18 | – | 7.47 | 6.67 | – | 7.02 | – | – | – | CCOc1ncccc1-c1ccn2c(C(C)C)nc(C)c2n1 [Example 72, 2-(2-ethoxy-3-pyridyl)-6-isopropyl-8-methyl-imidazo[1,5-a]pyrimidine]
19 | – | 6.53 | 5.68 | – | 5.81 | – | – | – | CCOc1ncccc1-c1ccn2c(C3CCC3)nc(C)c2n1 [Example 73, 6-cyclobutyl-2-(2-ethoxy-3-pyridyl)-8-methyl-imidazo[1,5-a]pyrimidine]
20 | – | 6.92 | 5.93 | – | 6.40 | – | – | – | CCOc1ncccc1-c1ccn2c(C3CC3)nc(C)c2n1 [Example 74, 6-cyclopropyl-2-(2-ethoxy-3-pyridyl)-8-methyl-imidazo[1,5-a]pyrimidine]
21 | – | 6.62 | 6.14 | – | 6.35 | – | – | – | CCOc1ncccc1-c1ccn2c(C3(C)COC3)nc(C)c2n1 [Example 77, 2-(2-ethoxy-3-pyridyl)-8-methyl-6-(3-methyloxetan-3-yl)imidazo[1,5-a]pyrimidine]
22 | – | 6.68 | 6.14 | – | 6.49 | – | – | – | CCOc1ncccc1-c1ccn2c(CC(F)(F)F)nc(C)c2n1 [Example 78, 2-(2-ethoxy-3-pyridyl)-8-methyl-6-(2,2,2-trifluoroethyl)imidazo[1,5-a]pyrimidine]
23 | – | 7.11 | 6.20 | – | 6.39 | – | – | – | CCOc1ncccc1-c1ccn2c(C3COC3)nc(C)c2n1 [Example 79, 2-(2-ethoxy-3-pyridyl)-8-methyl-6-(oxetan-3-yl)imidazo[1,5-a]pyrimidine]
24 | – | 6.23 | 5.64 | – | 5.49 | – | – | – | CCOc1ncccc1-c1ccn2c(C3CCCC3)nc(C)c2n1 [Example 80, 6-cyclopentyl-2-(2-ethoxy-3-pyridyl)-8-methyl-imidazo[1,5-a]pyrimidine]
25 | 29% | – | – | 28% | – | 54% | – | – | CCOc1ncccc1-c1ccn2c(C(C)(C)C)nc(C)c2n1 [Example 82, 6-tert-butyl-2-(2-ethoxy-3-pyridyl)-8-methyl-imidazo[1,5-a]pyrimidine]
26 | – | 6.27 | – | – | – | – | 23% | 56% | CCOc1ncccc1-c1cc(N2CC[C@@H](OC)C2)c2c(cnn2C)n1 [Example 85, 5-(2-ethoxy-3-pyridyl)-7-[(3R)-3-methoxypyrrolidin-1-yl]-1-methyl-pyrazolo[4,3-b]pyridine]
27 | – | 6.27 | – | – | – | – | 22% | 20% | CCOc1ncccc1-c1cc(N[C@@H]2CCC[C@H]2OC)c2c(cnn2C)n1 [Example 86, 5-(2-ethoxy-3-pyridyl)-N-[(1R,2R)-2-methoxycyclopentyl]-1-methyl-pyrazolo[4,3-b]pyridin-7-amine]
28 | – | 6.51 | – | – | – | – | 16% | 47% | CCOc1ncccc1-c1cc(NC2CCC(OC)C2)c2c(cnn2C)n1 (stereo not drawn) [Example 88, 5-(2-ethoxy-3-pyridyl)-N-(3-methoxycyclopentyl)-1-methyl-pyrazolo[4,3-b]pyridin-7-amine]
